The target of one assay is serotonin transporter (Homo sapiens, UniProt P31645). Nature of the assay: 5-HT uptake: displacement of serotonin ligands in vitro (methods of Gu et al.). The format is binding.
Assay [1] deals with norepinephrine transporter (Homo sapiens, UniProt P23975). Nature of the assay: NE uptake: displacement of norephinephrine ligands in vitro (methods of Galli et al.). The format is binding.
The target in a further assay is dopamine transporter (Homo sapiens, UniProt Q01959). Nature of the assay: DA uptake: displacement of dopamine ligands in vitro (methods of Gu et al.).
Chain of dopamine transporter (Q01959 whole entry): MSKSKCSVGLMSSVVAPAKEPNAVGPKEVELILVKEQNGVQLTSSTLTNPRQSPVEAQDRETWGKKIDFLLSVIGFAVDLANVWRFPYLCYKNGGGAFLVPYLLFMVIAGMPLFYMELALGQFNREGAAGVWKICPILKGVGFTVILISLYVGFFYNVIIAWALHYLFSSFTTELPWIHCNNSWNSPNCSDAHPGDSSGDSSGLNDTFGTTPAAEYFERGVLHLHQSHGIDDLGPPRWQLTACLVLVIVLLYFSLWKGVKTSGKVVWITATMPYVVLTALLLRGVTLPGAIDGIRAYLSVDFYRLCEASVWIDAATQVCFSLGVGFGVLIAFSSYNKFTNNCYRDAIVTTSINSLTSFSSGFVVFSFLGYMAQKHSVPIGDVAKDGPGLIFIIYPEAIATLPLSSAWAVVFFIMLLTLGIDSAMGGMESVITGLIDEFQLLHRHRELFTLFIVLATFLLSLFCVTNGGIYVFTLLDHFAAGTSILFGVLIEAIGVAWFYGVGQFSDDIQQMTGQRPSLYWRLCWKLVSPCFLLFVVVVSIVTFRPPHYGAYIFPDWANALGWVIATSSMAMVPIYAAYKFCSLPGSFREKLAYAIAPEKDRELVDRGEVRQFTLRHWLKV
Where [2] appears, read: displacement of serotonin ligands in vitro, read-out: 5-HT Uptake, Uptake Profile (IC50).
[3] abbreviates: NE Uptake, Uptake Profile (IC50, nM).
The mark [4] stands for this setting: DA Uptake, Uptake Profile (IC50, nM), displacement of dopamine ligands in vitro.
Setting [5] is: read-out: NE Uptake, Uptake Profile (IC50).
[6] abbreviates: 5-HT Uptake, Uptake Profile (IC50, nM).

The values that follow come from patent publication US7294637B2 (Sepracor, Inc., priority 2000, dated 2007).

Read-outs that look alike come from different tables or passages of the source.

By IC50 is commonly meant the concentration that inhibits the measured activity by half.

Chain of serotonin transporter (P31645 whole entry): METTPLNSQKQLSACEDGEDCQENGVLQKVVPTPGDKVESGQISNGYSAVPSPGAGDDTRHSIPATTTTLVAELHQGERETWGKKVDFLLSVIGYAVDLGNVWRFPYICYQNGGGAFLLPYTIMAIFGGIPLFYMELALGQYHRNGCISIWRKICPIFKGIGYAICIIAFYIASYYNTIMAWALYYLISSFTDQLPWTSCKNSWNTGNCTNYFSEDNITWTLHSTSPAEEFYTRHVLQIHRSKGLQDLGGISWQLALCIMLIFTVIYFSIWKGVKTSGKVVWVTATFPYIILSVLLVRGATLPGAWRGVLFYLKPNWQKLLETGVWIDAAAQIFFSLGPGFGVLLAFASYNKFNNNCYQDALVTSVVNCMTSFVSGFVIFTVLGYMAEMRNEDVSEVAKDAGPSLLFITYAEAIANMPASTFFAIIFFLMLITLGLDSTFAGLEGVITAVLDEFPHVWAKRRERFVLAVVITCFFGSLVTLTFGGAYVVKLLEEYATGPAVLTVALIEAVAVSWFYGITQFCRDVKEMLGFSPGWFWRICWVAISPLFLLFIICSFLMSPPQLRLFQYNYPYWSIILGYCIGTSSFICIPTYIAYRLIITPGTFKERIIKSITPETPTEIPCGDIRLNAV
Chain of norepinephrine transporter (P23975 whole entry): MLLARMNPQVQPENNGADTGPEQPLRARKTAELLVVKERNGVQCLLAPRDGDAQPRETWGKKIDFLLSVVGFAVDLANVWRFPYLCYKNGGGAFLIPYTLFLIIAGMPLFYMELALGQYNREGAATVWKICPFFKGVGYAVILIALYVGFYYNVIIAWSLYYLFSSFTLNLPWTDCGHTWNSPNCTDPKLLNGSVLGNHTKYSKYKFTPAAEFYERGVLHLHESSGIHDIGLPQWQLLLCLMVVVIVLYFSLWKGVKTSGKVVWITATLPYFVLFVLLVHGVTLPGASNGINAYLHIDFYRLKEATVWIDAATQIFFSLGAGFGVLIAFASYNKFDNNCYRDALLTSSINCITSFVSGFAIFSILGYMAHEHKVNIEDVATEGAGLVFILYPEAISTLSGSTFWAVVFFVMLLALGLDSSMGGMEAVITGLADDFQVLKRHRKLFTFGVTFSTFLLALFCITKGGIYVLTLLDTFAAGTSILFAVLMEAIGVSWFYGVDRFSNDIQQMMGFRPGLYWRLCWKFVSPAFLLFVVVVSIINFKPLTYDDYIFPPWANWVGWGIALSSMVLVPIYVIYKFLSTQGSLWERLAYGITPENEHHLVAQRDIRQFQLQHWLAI

Turning to `O=C(CN1CCCC(COc2ccc(C(F)(F)F)cc2)C1)C1(c2ccc(Cl)cc2)CCC1` (stereo not drawn) [compound 23, 1-[1-(4-Chlorophenyl)cyclobutyl]-2-[3-(4-trifluoromethyl-phenoxymethyl)piperidin-1-yl]ethanone], the IC50 was greater than 1000 nM at serotonin transporter (setting [2]), less than 1000 nM in assay [1] (setting [3]) and less than 100 nM on dopamine transporter (setting [4]).

On to `COC(CN1CCC[C@@H](CCc2ccccc2)C1)c1ccc(Cl)cc1` (stereo partly drawn) [compound 196, 1-[2-(4-Chloro-phenyl)-2-methoxy-ethyl]-3-(R)-phenethyl-piperidine], for which the results for the IC50 (at serotonin transporter (setting [2]); in assay [1] (setting [3]); at dopamine transporter (setting [4])) were less than 10 nM, less than 100 nM and less than 100 nM, respectively.

For the molecule `FC(F)(F)c1ccc(OCC2CCCN(CC3COc4ccccc4O3)C2)cc1` (single isomer, unassigned) [compound 179, 1-(2,3-Dihydro-benzo[1,4]dioxin-2-ylmethyl)-3-(4-trifluoromethyl-phenoxymethyl)-piperidine], the IC50 at serotonin transporter (setting [2]) was less than 1000 nM; in assay [1] (setting [3]) it was less than 1000 nM; on dopamine transporter (setting [4]) it was greater than 1000 nM.

Turning to `OC(CN1CCCC(CCc2ccc(C(F)(F)F)cc2)C1)C1(c2ccc(Cl)cc2)CCC1` (single isomer, unassigned) [compound 192, 1-[1-(4-Chloro-phenyl)-cyclobutyl]-2-{3-[2-(4-trifluoromethyl-phenyl)-ethyl]-piperidin-1-yl}-ethanol], the IC50 was less than 1000 nM on serotonin transporter (setting [2]), less than 1000 nM in assay [1] (setting [3]) and less than 10 nM at dopamine transporter (setting [4]).

Take `OC(C[C@H]1CCCN(CC2(c3ccc(Cl)cc3)CCC2)C1)c1ccccc1` (stereo in doubt) [compound 182, (S)-[2-{1-[1-(4-Chloro-phenyl)-cyclobutylmethyl]-piperidin-3-yl}-1-phenyl-ethanol]]: the IC50 at serotonin transporter (setting [2]) was less than 1000 nM; in assay [1] (setting [5]) it was greater than 1000 nM; at dopamine transporter (setting [4]), less than 100 nM.

For `O=C(N1CCCOC(COc2ccc(C(F)(F)F)cc2)C1)C1(c2ccc(Cl)cc2)CCC1` (stereo not drawn) [compound 16, [1-(4-Chloro-phenyl)-cyclobutyl]-[2-(4-trifluoromethyl-phenoxymethyl)-[1,4]oxazepan-4-yl]-methanone], the IC50 (on serotonin transporter (setting [2]); in assay [1] (setting [5]); on dopamine transporter) was greater than 1000 nM in each case.

Turning to `OC(CN1CCCC(CCc2ccccc2)C1)c1ccc(Cl)cc1` (stereo not drawn) [compound 140, 1-(4-Chloro-phenyl)-2-(3-phenethyl-piperidin-1-yl)-ethanol], the IC50 (on serotonin transporter (setting [2]); in assay [1] (setting [3]); on dopamine transporter (setting [4])) was less than 100 nM throughout.

For `OC(CN1CCCC(CCc2ccccc2)C1)c1ccc(Cl)cc1` (single isomer, unassigned) [compound 142, 1-(4-Chloro-phenyl)-2-(3-phenethyl-piperidin-1-yl)-ethanol], the IC50 on serotonin transporter (setting [2]) was less than 100 nM; in assay [1] (setting [3]) it was less than 1000 nM; at dopamine transporter (setting [4]), less than 1000 nM.

For `CC(C)(CN1CCCC(CO)C1)c1ccc(Cl)cc1` (stereo not drawn) [compound 80], the IC50 (at serotonin transporter (setting [2]); in assay [1] (setting [5]); on dopamine transporter (setting [4])) was greater than 1000 nM throughout.

Consider `COc1ccccc1C1(C(O)CN2CCCC(COc3ccc(C(F)(F)F)cc3)C2)CCC1` (stereo not drawn) [compound 164], for which the IC50 at serotonin transporter (setting [2]) was less than 100 nM; in assay [1] (setting [3]) it was less than 1000 nM; on dopamine transporter (setting [4]), less than 10 nM.

As for `OC(CN1CCCC(COc2ccccc2)C1)c1ccc(Cl)cc1` (stereo not drawn) [compound 33, 1-(4-Chloro-phenyl)-2-(3-phenoxymethyl-piperidin-1-yl)-ethanol], the IC50 at serotonin transporter (setting [2]) is less than 1000 nM; in assay [1] (setting [3]), less than 1000 nM; at dopamine transporter (setting [4]), less than 100 nM.

For `O=C(CN1CCCC(CCc2ccc(C(F)(F)F)cc2)C1)c1ccc(Cl)cc1` (stereo not drawn) [compound 150, 1-(4-Chloro-phenyl)-2-{3-[2-(4-trifluoromethyl-phenyl)-ethyl]-piperidin-1-yl}-ethanone], the IC50 (at serotonin transporter (setting [2]); in assay [1] (setting [5]); on dopamine transporter) was greater than 1000 nM throughout.

Take `FC(F)(F)c1ccc(OC[C@@H]2CCCN(CC3(c4ccc(Cl)cc4)CCC3)C2)cc1` [compound 76]: the IC50 is greater than 1000 nM at serotonin transporter (setting [6]), less than 1000 nM in assay [1] (setting [3]) and less than 1000 nM at dopamine transporter (setting [4]).

`OC(CN1CCCC(CCc2ccc(C(F)(F)F)cc2)C1)c1ccc(Cl)cc1` (single isomer, unassigned) [compound 154, 1-(4-Chloro-phenyl)-2-{3-[2-(4-trifluoromethyl-phenyl)-ethyl]-piperidin-1-yl}-ethanol]: the IC50 is less than 10 nM at serotonin transporter (setting [2]), less than 100 nM in assay [1] (setting [3]) and less than 10 nM on dopamine transporter (setting [4]).

Take `FC(F)(F)c1ccc(OCC2CCCN(CC3COc4ccccc4O3)C2)cc1` (single isomer, unassigned) [compound 178, 1-(2,3-Dihydro-benzo[1,4]dioxin-2-ylmethyl)-3-(4-trifluoromethyl-phenoxymethyl)-piperidine]: the IC50 (on serotonin transporter (setting [2]); in assay [1] (setting [3]); on dopamine transporter (setting [4])) was less than 1000 nM in each case.

Regarding `O=C(CN1CCCC(COc2ccccc2)C1)c1ccc(Cl)cc1` (stereo not drawn) [compound 32, 1-(4-Chloro-phenyl)-2-(3-phenoxymethyl-piperidin-1-yl)-ethanone], the IC50 at serotonin transporter (setting [6]) is greater than 1000 nM; in assay [1] (setting [3]) it was less than 1000 nM; on dopamine transporter (setting [4]), greater than 1000 nM.

Take `COc1ccccc1C1(C(O)CN2CCCC(COc3ccc4c(c3)OCO4)C2)CCC1` (stereo not drawn) [compound 232, 2-[3-(Benzo[1,3]dioxol-5-yloxymethyl)-piperidin-1-yl]-1-[1-(2-methoxy-phenyl)-cyclobutyl]-ethanol]: the IC50 (at serotonin transporter (setting [2]); in assay [1] (setting [3]); at dopamine transporter (setting [4])) was less than 1000 nM each time.

As for `O=C(CC1CCCN(CC2(c3ccc(Cl)cc3)CCC2)C1)c1ccccc1` (stereo in doubt) [compound 183, (S)-[2-{1-[1-(4-Chloro-phenyl)-cyclobutylmethyl]-piperidin-3-yl}-1-phenyl-ethanone]], the IC50 (at serotonin transporter (setting [2]); in assay [1] (setting [3]); on dopamine transporter (setting [4])) was less than 1000 nM each time.

Take `OC(CN1CCCC(COc2ccc(C(F)(F)F)cc2)C1)C1(c2ccccc2OC(F)(F)F)CCC1` (single isomer, unassigned) [compound 228, 1-[1-(2-Trifluoromethoxy-phenyl)-cyclobutyl]-2-[3-(4-trifluoromethyl-phenoxymethyl)-piperidin-1-yl]-ethanol]: the IC50 (at serotonin transporter (setting [2]); in assay [1] (setting [5]); at dopamine transporter (setting [4])) was greater than 1000 nM in each case.

On to `COc1ccc2[nH]cc(CCN3CCCC(COc4ccc(C(F)(F)F)cc4)C3)c2c1` (stereo not drawn) [compound 220, 5-Methoxy-3-{2-[3-(4-trifluoromethyl-phenoxymethyl)-piperidin-1-yl]-ethyl}-1H-indole], for which the results for the IC50 (at serotonin transporter (setting [2]); in assay [1] (setting [3]); at dopamine transporter (setting [4])) were less than 100 nM, less than 1000 nM and less than 1000 nM, respectively.

In the case of `OC1(COc2ccc(C(F)(F)F)cc2)CCCN(CC2(c3ccc(Cl)cc3)CCC2)C1` (stereo not drawn) [compound 167, [1-(4-Chloro-phenyl)-cyclobutylmethyl]-3-(4-trifluoromethyl-phenoxymethyl)-piperidin-3-ol], the IC50 on serotonin transporter (read-out: 5-HT Uptake, Uptake Profile (IC50)) is greater than 1000 nM; in assay [1] (setting [5]), greater than 1000 nM; at dopamine transporter (setting [4]) it was greater than 1000 nM.

Take `OC(CN1CCCC(CCc2ccc(C(F)(F)F)cc2)C1)c1ccc(Cl)cc1` (single isomer, unassigned) [compound 152, 1-(4-Chloro-phenyl)-2-{3-[2-(4-trifluoromethyl-phenyl)-ethyl]-piperidin-1-yl}-ethanol]: the IC50 at serotonin transporter (setting [2]) was less than 100 nM; in assay [1] (setting [3]), less than 1000 nM; on dopamine transporter (setting [4]), less than 1000 nM.
